≈ marks a conversion by molar mass, not a printed value. Where two headings read alike, the source gives them in different places.
Key:
[1] = test system: E. faecium CL 5053 (VanA); test: microbe, parasite or virus in culture; assay type: cell-based; settings: for MIC, CL5053: E. faecium CL 5053 (VanA)
Outline: (§1)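 Twofold broth microdilution per modified NCCLS M7-A4, 35 °C. Enterococci and VISA/MRSA in BHI (VISA/MRSA precultured in TSB + 10% HS), E. coli in MH II. Inocula ~1-5×10^6 CFU/ml for enterococci, ~3-7×10^5 CFU/ml otherwise. MIC is the lowest concentration with no visible growth, read at 18-20 hr (E. coli) or 22-24 hr.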

E. coli ASP #49 (envA-) = test: In vitro MIC panel assay (NCCLS broth microdilution); assay type: cell-based; settings: Escherichia coli
Description: (§2) National Committee for Clinical Laboratory Standards (NCCLS) guidelines [Methods for Dilution Antimicrobial Susceptibility Tests for Bacteria that Grow Aerobically-Fourth Edition; Approved Standard (NCCLS Document M7-A4, January 1997)] are used to establish the assay, although variations are made to optimize the published method according to the specific needs of the present investigation.
(§3) The test panel currently includes eight enterococci and 13 staphylococci, which are selected based upon their antibiotic susceptibility profiles. The methicillin-sensitive Staphylococcus aureus (MSSA) strain MB2985 (Smith isolate) is used to assesses the potential for serum protein binding of the compounds. The paired Gram-negative strains ASP #49 (envA-) and ASP #50 (envA+) (M. Salvatore/N. Lee) are included to judge membrane effects. Table 3 presents a detailed description of the strains included in the panel, including some of the sources of the strains of bacteria.
(§4) The glycopeptide antibiotic teicoplanin is included whenever possible.
(§5) TSB, containing 10% HS* for vancomycin intermediate S. aurcus/methicillin-resistant S. aureus (VISA/MRSA) strains, is inoculated from an appropriate source (frozen broth or agar slant) and grown approximately 17 hr at 35° C. with shaking at 220 rpm. Cultures are grown in tubes with a volume of 5 ml for enterococci and 2 ml for all other strains.
(§6) Four milliliter (4 ml) overnight culture is added to 36 ml physiological saline to obtain tenfold dilutions (enterococci). Overnight culture (0.4 ml) is added to 39.6 ml saline to obtain 100-fold dilutions (all strains except enterococci). Diluted cultures are maintained on ice until time of inoculation of test plates.
(§7) The number of CFU/mL is determined on BHI agar plates, although this is not done routinely because titers of overnight cultures are relatively constant. The test media include: • BHI for enterococci and VISA/MRSA; • MH II (i.e., cation-adjusted Mueller-Hinton broth) for MRS, MSS and E. coli.; • MH II+HSA for MSSA is prepared as follows: • a. 2×MHII+86mg/ml HSA • b. Dissolve 4.3 g HSA in 50 ml autoclaved 2x MH II. • c. pH to 7.0 by adding 2M MOPS, sodium. • d. Filter sterilize using 0.22 μm Coming cellulose acetate filter, used because of reported low protein binding. • e. 1×MH II+43 mg/ml HSA • f. Dilute the 2×medium twofold and filter as above. 5.8.6. Preparation of Test Plates
(§8) Using a Denley liquid handling system (or similar automatic device), 100 μ1×medium is added to each well in columns 2-12 of a 96-well microtiter dish. Using a multichannel pipettor, 100 μl 2×medium is added to each well in column 1. Plates may be filled on the day prior to assay, wrapped in plastic bags and refrigerated.
(§9) Vancomycin, Schering 29482, and teicoplanin are prepared on a weight per volume basis using 10 mM 3-(N-morpholino)propane-sulfonic acid (MOPS) buffer pH 7. Test compounds are received in solution in appropriate solvent (typically as 1 mg/ml in DMSO) or are dissolved in appropriate solvent prior to further dilution in 10 mM MOPS buffer, ph7. Consistent with NCCLS guidelines, antibiotics are handled aseptically but are not otherwise sterilized.
(§10) 100 μl appropriately diluted antibiotic solution is added to the first well of the designated row of the 96-well microtiter dish and serially diluted by twofold across the row using the Denley liquid handling system. With the aid of a Dynatech NEC 2000 inoculator, each well of the microtiter dish is inoculated with 1.5 μl diluted overnight culture, yielding approximately 1-5×10^6 CFU/ml for enterococci and approximately 3-7×10^5 CFU/ml for all other strains. Dishes are placed in stacks of no more than five, wrapped in plastic bags and incubated at 35° C. • Indication of result(s) type (% INH, IC50, Zone size, etc.) • MIC=minimum inhibitory concentration ps 5.8.9. Interpretation of the Results on the Basis of Activity […]

E. coli ASP #50 (envA+) = test: as above; assay type: cell-based; settings: Escherichia coli
Description: as §2, §3, §4, §5, §6, §7, §8, §9, §10

[2] = test system: E. faecalis CL 5244 (VanB); test: as above; assay type: cell-based; settings: Enterococcus faecalis
Description: as §2, §3, §4, §5, §6, §7, §8, §9, §10

E. faecalis MB2864 = test: as above; assay type: cell-based; settings: Enterococcus faecalis
Description: as §2, §3, §4, §5, §6, §7, §8, §9, §10

E. faecium RLA1 = test: as above; assay type: cell-based; settings: Enterococcus faecium
Description: as §2, §3, §4, §5, §6, §7, §8, §9, §10

[3] = test system: E. gallinarum CL 4886 (VanC); test: as above; assay type: cell-based; settings: Enterococcus gallinarum
Description: as §2, §3, §4, §5, §6, §7, §8, §9, §10

MRCNS CL 171 (S. haem.) = test: as above; assay type: cell-based
Description: as §2, §3, §4, §5, §6, §7, §8, §9, §10

MRCNS CL 202 (S. haem.) = test: as above; assay type: cell-based
Description: as §2, §3, §4, §5, §6, §7, §8, §9, §10

MRCNS CL 227 (S. hom.) = test: as above; assay type: cell-based
Description: as §2, §3, §4, §5, §6, §7, §8, §9, §10

MRCNS CL 3069 (S. epi.) = test: as above; assay type: cell-based
Description: as §2, §3, §4, §5, §6, §7, §8, §9, §10

MRCNS CL 546 (S. hom.) = test: as above; assay type: cell-based
Description: as §2, §3, §4, §5, §6, §7, §8, §9, §10

MRSA CL 3033 = test: as above; assay type: cell-based; settings: Staphylococcus aureus
Description: as §2, §3, §4, §5, §6, §7, §8, §9, §10

MRSA COL = test: as above; assay type: cell-based; settings: Staphylococcus aureus
Description: as §2, §3, §4, §5, §6, §7, §8, §9, §10

[4] = test system: E. faecalis CL 4877 (VanB); test: microbe, parasite or virus in culture; assay type: cell-based; settings: for MIC, CL4877: E. faecalis CL 4877 (VanB)
Outline: as §1

VISA/MRSA CL 5705 = test: In vitro MIC panel assay (NCCLS broth microdilution); assay type: cell-based, S. aureus; settings: Staphylococcus aureus
Description: as §2, §3
(§11) The glycopeptide antibiotic teicoplanin is included whenever possible. […]
(§12) The number of CFU/mL is determined on BHI agar plates, although this is not done routinely because titers of overnight cultures are relatively constant. […]

VISA/MRSA CL 5706 = test: as above; assay type: cell-based, S. aureus; settings: Staphylococcus aureus
Description: as §2, §3, §11, §12

[5] = test system: CL 4931, CL 5053, CL 5242 and CL 4877; assay type: cell-based, E. faecium, E. faecalis
Outline: as §1

Work on `CN[C@H](CC(C)C)C(=O)N[C@H]1C(=O)N[C@@H](CC(N)=O)C(=O)N[C@H]2C(=O)N[C@H]3C(=O)N[C@H](C(=O)N[C@H](C(=O)O)c4cc(O)cc(O)c4-c4cc3ccc4O)[C@H](O)c3ccc(c(Cl)c3)Oc3cc2cc(c3O[C@@H]2O[C@H](CO)[C@@H](O)[C@H](O)[C@H]2O[C@H]2C[C@](C)(N)[C@H](O)[C@H](C)O2)Oc2ccc(cc2Cl)[C@H]1O` [Vancomycin, vancomycin, reference compound] yielded an MIC ([1]; Enterococcus faecium) of 2050 µg/mL (≈ 1410 µM), an MIC, CL5053 ([1]; Table 9) of 2050 µg/mL (≈ 1410 µM) and an MIC, CL5053 ([1]; Table 10) of 2050 µg/mL (≈ 1410 µM). For the same compound, the “CL5053 (in vitro testing)” value ([1]; Tables 7 and 8, unit not given) was 2048, the MIC (E. coli ASP #49 (envA-)) was 32 µg/mL (≈ 22.1 µM) and the MIC (E. coli ASP #50 (envA+)) was 256 µg/mL (≈ 177 µM). For the same compound, the MIC [2] was 32 µg/mL (≈ 22.1 µM), the MIC (E. faecalis MB2864) was 2 µg/mL (≈ 1.38 µM) and the MIC (E. faecium RLA1) was 2 µg/mL (≈ 1.38 µM). The MIC [3] was 16 µg/mL (≈ 11 µM), the MIC (MRCNS CL 171 (S. haem.)) was 2 µg/mL (≈ 1.38 µM) and the MIC (MRCNS CL 202 (S. haem.)) was 2 µg/mL (≈ 1.38 µM). It also gave an MIC (MRCNS CL 227 (S. hom.)) of 1 µg/mL (≈ 0.69 µM), an MIC (MRCNS CL 3069 (S. epi.)) of 2 µg/mL (≈ 1.38 µM) and an MIC (MRCNS CL 546 (S. hom.)) of 1 µg/mL (≈ 0.69 µM). The MIC (MRSA CL 3033) was 0.5 to 1 µg/mL (≈ 0.345 to 0.69 µM), the MIC (MRSA COL) was 1 µg/mL (≈ 0.69 µM) and the MIC ([4]; Enterococcus faecalis) was 2050 µg/mL (≈ 1410 µM). For the same compound, the MIC, CL4877 ([4]; Table 9) was 2050 µg/mL (≈ 1410 µM), the MIC, CL4877 ([4]; Table 10) was 2050 µg/mL (≈ 1410 µM) and the “CL4877 (in vitro testing)” value ([4]; Tables 7 and 8, unit not given) was 2048. The MIC (VISA/MRSA CL 5705) was 2 to 4 µg/mL (≈ 1.38 to 2.76 µM), the MIC (VISA/MRSA CL 5706) was 4 to 8 µg/mL (≈ 2.76 to 5.52 µM) and the Mean ([5]; Table 9, mean MIC over CL4931, CL5053, CL5242, CL4877) was 1664.0. It also gave a Mean ([5]; Table 10, mean MIC over CL4931, CL5053, CL5242, CL4877) of 1536.0 and a Mean ([5]; mean of CL4931, CL5053, CL5242, CL4877, unit not given) of 1664.0.

— patent publication US6841661B2, “Glycopeptide antibacterial compounds, compositions containing same and methods of using same” (Princeton Univerisity, priority 1999, dated 2005)
